# Test results taken from US7598275B2, “Nicotine in therapeutic angiogenesis and vasculogenesis” (priority 1999, dated 2009).
# B1: Del1: Del-1 protein, known to induce angiogenesis (protein, UniProt O43854 24-480, looked up)
# EGF-like repeat and discoidin …: DICDPNPCENGGICLPGLADGSFSCECPDGFTDPNCSSVVEVASDEEEPTSAGPCTPNPCHNGGTCEISEAYRGDTFIGYVCKCPRGFNGIHCQHNINECEVEPCKNGGICTDLVANYSCECPGEFMGRNCQYKCSGPLGIEGGIISNQQITASSTHRALFGLQKWYPYYARLNKKGLINAWTAAENDRWPWIQINLQRKMRVTGVITQGAKRIGSPEYIKSYKIAYSNDGKTWAMYKVKGTNEDMVFRGNIDNNTPYANSFTPPIKAQYVRLYPQVCRRHCTLRMELLGCELSGCSEPLGMKSGHIQDYQITASSIFRTLNMDMFTWEPRKARLDKQGKVNAWTSGHNDQSQWLQVDLLVPTKVTGIITQGAKDFGHVQFVGSYKLAYSNDGEHWTVYQDEKQRKDKVFQGNFDNDTHRKNVIDPPIYARHIRILPWSWYGRITLRSELLGCTEEE
# Experiments:
# C57BL/6J mice [1] = assay: Disc angiogenesis system (DAS), fibrovascular growth into implanted disc; format: in vivo; conditions: for effect on nicotine-induced fibrovascular growth (systemic nicotine) / effect on nicotine-induced fibrovascular growth (local nicotine): oral supplementation: LNNA 6 mg/ml, indomethacin 20 mcg/ml; for effect on nicotine-induced fibrovascular growth (systemic nicotine): nicotine in drinking water; for effect on nicotine-induced fibrovascular growth (local nicotine): nicotine inside the DAS; for angiogenesis in comparison to vehicle: locally in disc pellet: bFGF 20 mcg, Del-1 0.2 M, nicotine 10^-6 M
# Text: To study whether nicotine induces angiogenesis in vivo, we employed the disc angiogenesis system (DAS) (Kowalski et al. (1992) Exp Mol Pathol 56(1):1-19; Fajardo et al. (1998) Lab Invest 58:718-7244).
# Preparation of the disc. The DAS consisted of a disc (11 mm in diameter and 1 mm thickness) made of a polyvinyl alcohol sponge (Kanebo PVA, RippeyCo., Santa Clara, Calif.). Both sides were covered with nitrocellulose cell-impermeable filters (Millipore filters, […] in pore diameter, Millipore, SF, Calif.) of the same diameter as the sponge disc, fixed to the sponge using Millipore glue#1 (xx70000.00, Millipore). As a result, cells (and thus vessels) could penetrate or exit only through the rim of the disc (Kowalski et al. (1992) Exp Mol Pathol 56(1):1-19; Fajardo et al. (1998) Lab Invest 58:718-7244).
# In order to study the local effect of nicotine on angiogenesis, nicotine was placed in a pellet which was added directly to the disc. Briefly, a 1.5-mm core (pellet) was cut from the disc center. Both the pellets and discs were sterilized prior to assembly in a laminar flow hood. The pellet was loaded with up to 20 mcl of the nicotine solution and subsequently air-dried. We placed in the disc pellets with either vehicle (PBS, Sigma, Chemical Co., St Louis, Mo., n=5) or nicotine (10^-6 M, Aldrich Chemical Company, Milwaukee, Wis., n=5) to study the effects of locally administered nicotine. For comparison, in some cases basic fibroblast growth factor (bFGF; 20 mcg) or Del-1 protein (0.2 M) was added to the pellet, rather than nicotine. Both bFGF and Del-1 are known to induce angiogenesis. The pellet was then coated with ethylene-vinyl acetate co-polymer (Elvax, Dupont, Chemcentral Corp., Chicago, Ill.) which would permit slow release of the nicotine from the pellet into the disc. The pellet was then re-inserted into the disc before sealing the disc with the millipore filters.
# To study the systemic effects of nicotine, in some cases the animals were administered nicotine in their drinking water (see below).
# Implantation of the disc. The mice were anesthetized with 4% chloralhydrate [intraperitoneal administration (i.p.), 0.1 cc/10 g body weight]. The flanks and posterior surface of the thorax were shaved and cleaned with saturated 70% isopropyl alcohol. A 2-cm incision was made in the skin of the flank contra-lateral to the implantation site. Blunt dissection through the subcutaneous tissue produced a channel into which the saline moistened disc was inserted. The skin was closed with 5.0 silk suture (Kowalski et al. (1992) Exp Mol Pathol 56(1):1-19; Fajardo et al. (1998) Lab Invest 58:718-7244).
# Disc removal and preparation. Two weeks after disc implantation, the mice were sacrificed with an overdose of 4% chloral hydrate (i.p.) and cervical dislocation. A careful incision was made next to the skin overlying the implanted disc, and the disc was gently removed from the implantation site. Attached tissue was carefully detached from the disc. After removing the disc, one filter was separated from the disc. Discs were then fixed in 10% formalin and embedded flat in paraffin. Subsequently, […] sections were made in a plane through the center of the disc and parallel to the disc surface.
# Quantitation of results. The disc sections were stained with H&E for light microscopy and histomorphometric measurement of radial growth, and stained with toluidine blue for quantitative determination of total area of fibrovascular growth. Using a video microscope and a computer assisted digital image analysis system (NIH Image 1.59b9), the entire area of fibrovascular growth in the toluidine blue stained disc was calculated and expressed in mm^2. As described in a previous study, total fibrovascular growth area is directly proportional to the total area of the disc occupied by blood vessels (Kowalski et al. (1992) Exp Mol Pathol 56(1):1-19; Fajardo et al. (1998) Lab Invest 58:718-7244).
# endothelial cells = assay: Endothelial cell (EC) migration assay; format: cell-based
# Text: In this experiment, the effects of VEGF, FGF and nicotine in an endothelial cell (EC) migration assay were observed. The EC migration assay involves growing a confluent endothelial monolayer, and then scraping away half of the cells. The number of endothelial cells that migrate over time into the denuded region was observed. Unstimulated cells will migrate into the region. Angiogenic agents will accelerate this migration.
# In this histogram shown in FIG. 8, the number of migrating cells is expressed as a percentage of the number of endothelial cells migrating into the region under unstimulated conditions.
# C57BL/6J mice [2] = tested on: C57BL/6J mice
# Protocol: Murine Ischemic Hindlimb Model of Peripheral Arterial Disease (PAD). Mice were anesthetized with 4% chloral hydrate [intraperitoneal administration (i.p.), 0.1 cc/10 g body weight). The medial surface of both hindlimbs were shaved and then cleaned with betadine solution. A 1.5-cm longitudinal incision was performed, extending from the knee to the inguinal ligament. Through this incision, the superficial femoral artery was dissected free along its length. After the distal ends of both the external iliac and superficial femoral arteries were ligated with 7.0 (Ethicon), complete excision of the femoral artery was performed. An additional set of mice underwent sham operation. The incisions were then closed with discontinuous stitches of 5.0 silk suture (Ethicon). Ampicillin (1 mg/10 gm body weight) intraperitoneal injection was administered after surgical procedure.
# Tissue Preparation. Three weeks after surgery, mice were euthanized with an overdose of 4% chloral hydrate (i.p) and cervical dislocation, and the adductor and semimembranous muscles were collected for capillary density assessment. Briefly, a longitudinal incision in the medial thigh was made to expose the entire hindlimb muscle. The adductor and semimembranous muscles were removed and immediately frozen in OCT. Subsequently, sections 5 μm were taken from the mid-region of each muscle in a transverse orientation. The sections were air dried and fixed in acetone.
# Capillary Densitometry. Immunohistochemistry was performed using an alkaline phosphatase assay to identify the endothelial cells. An eosin counterstain was used to differentiate myocytes. Capillaries and myocytes were identified and counted using light microscopy (20×). For each section, four different fields were selected and the total number of capillaries and myocytes per field determined. These values were averaged to provide a determination of capillary density for each experimental limb. To ensure that value for capillary density was not overestimated due to muscle atrophy, or underestimated due to interstitial edema, capillary density was expressed as a ratio of capillaries to myocytes present in the same field.
# Daily intramuscular injections of nicotine solution or vehicle were administered (50 μl ) for a period of three weeks.
# [3] = VEGF 1 ng/ml, FGF, nicotine (FIG. 8)
# [4] = highest dose (3200 ng/kg = 3.2 μg/kg) i.m. daily for three weeks
molecule,measurement,setting,value
"NC(=NCCC[C@H](N)C(=O)O)N[N+](=O)[O-] [LNNA, L, nitro-arginine]",effect on nicotine-induced fibrovascular growth (systemic nicotine),C57BL/6J mice [1],blocked
same,effect on nicotine-induced fibrovascular growth (local nicotine),C57BL/6J mice [1],blocked the effects of nicotine
"CN1CCC[C@H]1c1cccnc1 [nicotine, S-3-(1-methyl-2-pyrrolidinyl)pyridine]","EC migration, number of migrating cells relative to unstimulated conditions",endothelial cells; [3],same degree
same,"angiogenic potency relative to growth factors tested in DAS (Del1, bFGF)",C57BL/6J mice [1]; local effects in the disc angiogenesis system,as or more potent
same,area of fibrovascular growth into the disc,"C57BL/6J mice [1]; local nicotine, 10^-6 M in pellet inside the disc, basal about 10 mm^2",about 20 mm^2
same,angiogenesis in comparison to vehicle,C57BL/6J mice [1],increased angiogenesis to the same degree
same,"angiogenesis, systemic versus local nicotine administration",C57BL/6J mice [1]; systemic nicotine (drinking water) compared with nicotine in disc,greater than local nicotine administration
same,"angiogenesis, systemic administration versus locally administered bFGF and Del-1","C57BL/6J mice [1]; systemic nicotine (drinking water), FIG. 4",much greater degree
same,area of fibrovascular growth into the disc,"C57BL/6J mice [1]; systemic nicotine, 60 mcg/ml in drinking water, disc removed two weeks after implantation, basal somewhat greater than 10 mm^2",35 mm^2
same,capillary density in the ischemic limb,"C57BL/6J mice [2]; 0.03 μg/kg i.m. daily for three weeks, vehicle control 0.35",0.67 capillaries/myocyte
same,angiogenic response in the ischemic limb at the highest dose,C57BL/6J mice [2]; [4],angiogenesis was not increased
same,toxicity at the highest dose (interstitial edema and myocyte necrosis),C57BL/6J mice [2]; [4],some toxicity was observed
same,angiogenic effect in non-ischemic hindlimbs,C57BL/6J mice [2]; untreated non-ischemic limb of animals given i.m. nicotine in the ischemic limb,no angiogenic effect was detected
CN(C)C(=O)Oc1cccc([N+](C)(C)C)c1 [neostigmine],increase of EC migration,"endothelial cells; 10^−6 M alone, relative to unstimulated cells",over 50%
VEGF,"EC migration, number of migrating cells relative to unstimulated conditions",endothelial cells; [3],increases EC migration to the same degree as FGF or Nicotine
same,"EC migration, number of migrating cells relative to unstimulated conditions",endothelial cells; high dose VEGF 10 ng/ml,greatest response
"bFGF: basic fibroblast growth factor, known to induce angiogenesis",angiogenesis in comparison to vehicle,C57BL/6J mice [1],increased angiogenesis to the same degree
COc1ccc2c(c1)c(CC(=O)O)c(C)n2C(=O)c1ccc(Cl)cc1 [indomethacin],effect on nicotine-induced fibrovascular growth (systemic nicotine),C57BL/6J mice [1],blocked
same,effect on nicotine-induced fibrovascular growth (local nicotine),C57BL/6J mice [1],blocked the effects of nicotine
B1,angiogenesis in comparison to vehicle,C57BL/6J mice [1],increased angiogenesis to the same degree
